Series [1] relates to LAMP1/2, TFEB and cathepsin D. The experiment in a line: Expression of LAMP1/2, TFEB and cathepsin D in hypoxia-exposed primary trophoblast cells. It counts as cell-based, human. Here is the method: FIG. 15. To investigate the underlying mechanisms, it was evaluated whether Trehalose can enhance the activities of autophagy-lysosomal degradation pathway, the machinery responsible for clearance of protein aggregates. To this end, the signaling molecules of this machinery such as LAMP1/2, TFEB and cathepsin D were examined in primary trophoblast cells in response to hypoxia stimulation with and without Trehalose treatment.

For series [2], the system named is pregnant IL10-/- mice. The experiment in a line: Mouse model of PE: severe PE serum in pregnant IL10-/- mice. It counts as in vivo. The settings on record: for preeclampsia-like features (hypertension, proteinuria, growth restriction, kidney injury): PE serum at gd10 in IL-10-/- mice, 2 g/kg i.p. at gd9, or gd11 and gd14, or gd9, gd11 and gd14, readout gd17. Here is the method: (§1) FIGS. 16 and 17. Based on the results in the cellular model of PE, the effect of Trehalose treatment in an animal model of PE was evaluated next in an established mouse model of PE by a single administration of severe PE serum in pregnant IL10^−/− mice at gd10^22. Using this model, mice were injected intraperitoneally with vehicle, Trehalose (2 g/kg), maltose, or D-glucose (2 g/kg) at gestational day (gd) 9 (a single dose before serum injection), at gd11 and gd14 (two doses after serum injection), or at gd9, gd11 and gd14 (one dose before and two doses after serum injection) (FIG. 16). At gd17, urine was collected, blood pressure was measured, and fetal weight was recorded (FIG. 17A-D). Kidney was fixed and processed for H&E staining for glomerular endotheliosis (FIG. 17E). As reported previously, administration of severe PE sera, not normal pregnancy sera, at gd10 recapitulated a full spectrum of PE-like manifestations in IL-10^−/− mice, including hypertension, proteinuria, renal injury and fetal growth restriction (FIG. 17).

Series [3] relates to cis-P-tau. The experiment in a line: cis-P-tau immunostaining in hypoxia-exposed primary trophoblast cells. It counts as cell-based, human. The settings on record: trehalose 50 mM, 1% O2, 3 days. Here is the method: (§2) Human primary trophoblast cells (ScienCell Research Laboratories) were plated on glass coverslips and cultured in trophoblast medium supplemented with 5% fetal bovine serum, 1% trophoblast growth supplement and 1% penicillin/streptomycin (ScienCell Research Laboratories) in a humidified atmosphere with 5% CO2 at 37° C. Cells were washed three times with Dulbecco's phosphate-buffered saline and cultured in serum-free trophoblast medium prior to exposure to low oxygen tension (1% O2) or normoxia (20% O2) for 3 days. Cells were fixed with 4% formaldehyde in PBS for 15 min, permeabilized and then stained with ProteoStat® dye.
Primary trophoblast cells were treated with vehicle or trehalose (50 mM), exposed to low oxygen tension (1% O2) or normoxia, and fixed at 3 days. After permeabilized and blocked in PBS solution containing 1% Triton-X, 3% BSA and normal donkey serum for 30 min, cells were immunostained for cis-P-tau and mounted in anti-quench mounting medium with DAPI.

For series [4], the system named is Pin1. Nature of the series: Pin1 immunostaining in nuclei of hypoxia-exposed primary trophoblast cells. It counts as cell-based, human. The settings on record: trehalose 50 mM, 1% O2, 3 days. On the procedure: as §2
Primary trophoblast cells were treated with vehicle or trehalose (50 mM), exposed to low oxygen tension (1% O2) or normoxia, and fixed at 3 days. After permeabilized and blocked in PBS solution containing 1% Triton-X, 3% BSA and normal donkey serum for 30 min, cells were immunostained for […] with mouse anti-Pin1 antibody and then with Alexa Fluor 488 donkey anti-mouse secondary antibody. Cells were then mounted in anti-quench mounting medium with DAPI.

For series [5], the system named is pS71-Pin1. Nature of the series: pS71-Pin1 immunostaining in nuclei of hypoxia-exposed primary trophoblast cells. It counts as cell-based, human. The settings on record: trehalose 50 mM, 1% O2, 3 days. Here is the method: as §2
Primary trophoblast cells were treated with vehicle or trehalose (50 mM), exposed to low oxygen tension (1% O2) or normoxia, and fixed at 3 days. After permeabilized and blocked in PBS solution containing 1% Triton-X, 3% BSA and normal donkey serum for 30 min, cells were immunostained for pS71-Pin1 with rabbit anti-pS71-Pin1 antibody and then with Alexa Fluor 488 donkey anti-rabbit secondary antibody. Cells were then mounted in anti-quench mounting medium with DAPI.

The test system of series [6] is components of autophagy-lysosomal machinery. Nature of the series: Western blot of autophagy markers in hypoxia-exposed primary trophoblast cells. It counts as cell-based, human. The settings on record: trehalose 50 mM, 1% O2, 3 days. Here is the method:
Primary trophoblast cells were treated with vehicle or trehalose (50 mM), exposed to low oxygen tension (1% O2) or normoxia, and fixed at 3 days. Cells were harvested and lysed in RIPA lysis buffer containing protease inhibitors cocktail (Sigma). Proteins were separated by 4-12% SDS-PAGE and transferred into PVDF membrane. After blocking with 5% nonfat milk in PBS-tween (PBS-T) buffer for 30 min, the transferred membrane was incubated overnight in indicated primary antibodies, diluted in 3% or 5% BSA in PBS-T buffer, at 4° C. The membrane was washed three times, incubated for 1 h at room temperature with HRP-conjugated goat anti-rabbit/mouse IgG (Cell signaling), and then treated with enhanced chemiluminescent substrate (Thermofisher) and exposed on film.

The subject of series [7] is protein aggregates in primary trophoblast cells. Nature of the series: ProteoStat staining of protein aggregates in hypoxia-exposed primary trophoblast cells. It counts as cell-based, human. Conditions: 1% O2, 3 days. On the procedure:
Human primary trophoblast cells (ScienCell Research Laboratories) were plated on glass coverslips and cultured in trophoblast medium supplemented with 5% fetal bovine serum, 1% trophoblast growth supplement and 1% penicillin/streptomycin (ScienCell Research Laboratories) in a humidified atmosphere with 5% CO2 at 37° C. Cells were washed three times with Dulbecco's phosphate-buffered saline and cultured in serum-free trophoblast medium prior to exposure to low oxygen tension (1% O2) or normoxia (20% O2) for 3 days. Cells were fixed with 4% formaldehyde in PBS for 15 min, permeabilized and then stained with ProteoStat® dye. […] FIG. 14. The effect of Trehalose on protein aggregation was examined in primary trophoblast cells in response to hypoxia, a useful cellular model of PE. Primary trophoblast cells were cultured under normoxic and hypoxic (1% O2) culture conditions for 3 days, treated with vehicle, Trehalose, maltose, sucrose or D-glucose and then fixed for staining or lysed for Western blotting. ProteoStat, a dye with high affinity to aggregated proteins, was used to detect protein aggregates in treated and untreated cells.

Series [8] deals with TCL-1 cells. Nature of the series: Autophagy-lysosomal machinery and protein aggregates in trophoblast cell line TCL-1 under hypoxia. It counts as cell-based, human.
Series [9] relates to placenta of pre-eclamptic mice. The experiment in a line: Placentas of pre-eclamptic mice: ProteoStat signal and cathepsin D expression. It counts as in vivo, mouse. The settings on record: all dose regimens. Here is the method: as §1
FIG. 18. Furthermore, the molecular events that underlie effects of Trehalose in pre-eclamptic mice were interrogated. The placentas from Trehalose-treated mice and controls were assessed for the abundance of aggregated proteins and expression of molecules in autophagy-lysosomal pathway.

The conditions of series [10]: FDA; safety studies in mice, rats, and rabbits including in pregnancy; cited from earlier work.

Take `O=C[C@H](O)[C@@H](O)[C@H](O)[C@H](O)CO` [D-glucose, reference compound]: the “hypoxia-induced downregulation of LAMP1/2, TFEB and cathepsin D” value in series [1] was “not easily observed”. Moreover, the “preeclampsia-like features (hypertension, proteinuria, growth restriction, kidney injury)” value (“preeclampsia-like features” below) in series [2] is recorded as “failed to rescue PE-like features”.
`OC[C@H]1O[C@H](O[C@H]2O[C@H](CO)[C@@H](O)[C@H](O)[C@H]2O)[C@H](O)[C@@H](O)[C@@H]1O` [Trehalose]: the “hypoxia-induced upregulation of cis-P-tau” value in series [3] was “blocked hypoxia-induced upregulation of cis-P-tau”. Further, the “hypoxia-induced downregulation of nuclear Pin1 expression” value in series [4] is “blocked hypoxia-induced downregulation of nuclear Pin expression”. Also, the “hypoxia-induced upregulation of nuclear pS71-Pin1 expression” value in series [5] was “inhibited hypoxia-induced upregulation of nuclear pS71-Pin1 expression”. In addition, the “hypoxia-induced downregulation of components of autophagy-lysosomal machinery (Western blot)” value in series [6] is “blocked hypoxia-induced downregulation of these proteins”. The “hypoxia-induced accumulation of protein aggregates (ProteoStat signal)” value in series [7] is recorded as “significantly rescued hypoxia-induced accumulation of protein aggregates”; in [7] (listed as trehalose) it was “inhibits protein aggregation”. In addition, the “hypoxia-induced downregulation of LAMP1/2, TFEB and cathepsin D” value in [1] is reported as “significantly rescued hypoxia-induced downregulation of these molecules”. Also, the “autophagy-lysosomal machinery and aggregate clearance under hypoxia” value in [8] is reported as “restores autophagy machinery”. In [2], the “preeclampsia-like features” value is listed as “significantly reversed preeclampsia-like features”. Further, the “effect in mice administered normal pregnancy sera” value in series [2] (normal pregnancy serum, IL-10-/- mice, 2 g/kg i.p.) was “did not have obvious effect”. Also, the “expression of cathepsin D in placenta” value in [9] is recorded as “rescued the expression of cathepsin D”. For the same compound, the “protein aggregates in placenta (ProteoStat signal)” value in series [9] (labyrinth, junctional zone and decidua) is listed as “significantly decreased protein aggregates”. Moreover, the safety status result in [10] was “generally regarded as safe”.
`OC[C@H]1O[C@H](O[C@H]2[C@H](O)[C@@H](O)C(O)O[C@@H]2CO)[C@H](O)[C@@H](O)[C@@H]1O` (mixture of isomers) [maltose, reference compound]: in series [1], the “hypoxia-induced downregulation of LAMP1/2, TFEB and cathepsin D” value is reported as “not easily observed”. In addition, the “preeclampsia-like features” value in series [2] is on record as “failed to rescue PE-like features”.

The values above are taken from patent US11844808B2, “Methods and compositions for treating pre-eclampsia” (Women & Infants Hospital of Rhode Island, priority 2018, dated 2023).
